The source of these data is ChEMBL document CHEMBL3585315, “Discovery of mammalian target of rapamycin (mTOR) kinase inhibitor CC-223” (J Med Chem, 2015).

SMILES strings stand for the structures.

For data set [1], the target named is Phosphatidylinositol 4,5-bisphosphate 3-kinase catalytic subunit alpha isoform (Homo sapiens, UniProt P42336). In words: Inhibition of PI3K-alpha (unknown origin) by mobility shift assay.
The next data set can be described thus: cells. As to conditions: Homo sapiens, PC-3, 1 h.
Data set [2] is filed under the species Mus musculus. In words: animal or person. To be noted: PC-3, po, 8 h, read-out: INH.
Data set [3] in a line: Metabolic stability in rat S9 fraction assessed as compound remaining measured at 60 mins. Type of data set: ADME. To be noted: read-out: Stability.
The test system of data set [4] is PC-3. As to conditions: Homo sapiens.
For data set [5], the species on record is Mus musculus. Description: animal or person. As to conditions: PC-3, po, 8 h, read-out: INH. This is another data set of the same source.
Data set [6] is filed under the species Mus musculus. In words: animal or person. As to conditions: PC-3, po, 4 h, read-out: INH.
For data set [7], the species on record is Mus musculus. Description: animal or person. To be noted: PC-3, po, 2 h, read-out: INH.
For data set [8], the species on record is Mus musculus. In words: animal or person. To be noted: PC-3, po, 4 h, read-out: INH. This is another data set of the same source.
For data set [9], the species on record is Mus musculus. Description: animal or person. To be noted: PC-3, po, 2 h, read-out: INH. The source holds these as a separate data set.
The test system of data set [10] is PC-3. In words: Antitumor activity against human PC3 cells xenografted in mouse assessed as tumor volume reduction at 50 mg/kg, po qd for 21 days relative to control. The class given is functional. The arrangement: scale not given: the % may be the effect or the level left. In general terms: Xenograft models place foreign cells or tissue in a host animal.
For data set [11], the species on record is Mus musculus. In words: animal or person. To be noted: PC-3, po, 24 h, read-out: INH.
For data set [12], the system named is PC-3. As to conditions: Homo sapiens, TDE = time-dependent effect.
For data set [13], the species on record is Mus musculus. Description: animal or person. To be noted: PC-3, po, 24 h, read-out: INH. This is another data set of the same source.
Data set [14] can be described thus: AUC (0 to infinity) in rat at 5 mg/kg, po. The class given is ADME, organism-based. Also noted: dose 5 mg/kg, time infinity, route oral. As to conditions: in vivo.
Data set [15] can be described thus: Clearance in rat at 2 mg/kg, iv. To be noted: in vivo. The class given is ADME, organism-based.
A short description of data set [16]: Cmax in rat at 5 mg/kg, po. Type of data set: ADME, organism-based. Also noted: dose 5 mg/kg, route oral. To be noted: in vivo.
The nature of data set [17]: Oral bioavailability in rat at 5 mg/kg. Type of data set: ADME, organism-based. To be noted: in vivo.
A short description of data set [18]: Tmax in rat at 5 mg/kg, po. Type of data set: ADME, organism-based. As to conditions: in vivo.
The nature of data set [19]: Inhibition of mTORC2 in human PC3 cells assessed as inhibition of AKT phosphorylation at S473 by sandwich immunoassay. As to conditions: PC-3. Type of data set: cell-based.
In data set [20] the target is Serine/threonine-protein kinase mTOR (Homo sapiens, UniProt P42345). In words: Inhibition of recombinant mTOR (unknown origin) using GST-p70S6 as substrate after 60 mins by TR-FRET analysis. (In general: Time-resolved FRET reads energy transfer from a long-lived donor to a nearby acceptor.)
Data set [21] has as its system PC-3. In words: Cytotoxicity against human PC3 cells assessed as inhibition of cell proliferation after 3 days by WST1 assay. Type of data set: functional, cell-based. To be noted: PC-3, 72 h. On the technique in general: Formazan colour is commonly taken as a measure of viable cells.

Chain of Phosphatidylinositol 4,5-bisphosphate 3-kinase catalytic subunit alpha isoform (P42336 whole entry, canonical isoform): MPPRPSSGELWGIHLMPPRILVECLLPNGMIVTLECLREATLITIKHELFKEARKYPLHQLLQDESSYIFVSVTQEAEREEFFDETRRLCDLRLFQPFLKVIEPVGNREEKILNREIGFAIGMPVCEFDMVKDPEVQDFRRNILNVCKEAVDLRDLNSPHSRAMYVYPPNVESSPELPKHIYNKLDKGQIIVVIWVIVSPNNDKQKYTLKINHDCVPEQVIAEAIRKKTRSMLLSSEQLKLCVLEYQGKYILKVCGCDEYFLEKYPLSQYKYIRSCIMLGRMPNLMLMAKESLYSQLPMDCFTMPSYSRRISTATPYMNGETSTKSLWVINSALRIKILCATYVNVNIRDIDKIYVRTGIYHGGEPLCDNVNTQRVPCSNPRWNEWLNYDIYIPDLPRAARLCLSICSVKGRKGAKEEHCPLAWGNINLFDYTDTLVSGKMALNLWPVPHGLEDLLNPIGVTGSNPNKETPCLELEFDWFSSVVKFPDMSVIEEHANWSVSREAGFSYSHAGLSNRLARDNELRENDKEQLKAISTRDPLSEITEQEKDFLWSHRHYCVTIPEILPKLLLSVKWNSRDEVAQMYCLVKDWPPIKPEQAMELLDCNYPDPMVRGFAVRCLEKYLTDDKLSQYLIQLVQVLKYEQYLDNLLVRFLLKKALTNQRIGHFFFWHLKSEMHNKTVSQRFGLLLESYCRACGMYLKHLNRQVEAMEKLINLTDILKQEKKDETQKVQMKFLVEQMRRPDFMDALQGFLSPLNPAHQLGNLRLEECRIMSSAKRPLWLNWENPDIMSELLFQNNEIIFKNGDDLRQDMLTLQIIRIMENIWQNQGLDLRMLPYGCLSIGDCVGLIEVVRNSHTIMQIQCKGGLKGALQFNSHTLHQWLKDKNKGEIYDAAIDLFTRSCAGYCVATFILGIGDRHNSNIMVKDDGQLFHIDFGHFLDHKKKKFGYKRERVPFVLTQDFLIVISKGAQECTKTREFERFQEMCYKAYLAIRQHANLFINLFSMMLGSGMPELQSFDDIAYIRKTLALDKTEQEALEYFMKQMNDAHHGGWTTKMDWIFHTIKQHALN

For orientation: IC50 means the point on the concentration scale where inhibition reaches its midpoint. For `O=C1CN(CCC2CCOCC2)c2nc(-c3ccc(-c4nc[nH]n4)nc3)cnc2N1`, the IC50 in data set [1] was determined as 1600 nM.

On to `CC(C)(O)c1ccc(-c2cnc3c(n2)N(CC2CCOCC2)CC(=O)N3)cn1`, for which the IC50 in “cells” was 320 nM; in [1] it was over 30000 nM. The inhibition in vivo at 100 mg/kg in the data set listed under Mus musculus [2] is 88%; in the data set filed under Mus musculus [5], 71%; in the data set filed under Mus musculus [6], 86%; in the data set listed under Mus musculus [7], 85%; in the data set listed under Mus musculus [8], 73%; in the data set filed under Mus musculus [9], 88%. In addition, the inhibition in vivo at 100 mg/kg is 83% in the data set filed under Mus musculus [11] and 65% in the data set filed under Mus musculus [13]. For the same compound, the remaining at 1 h in data set [3] is 100%. In addition, the figures for the TGI entry with PC-3 [4] and with PC-3 [12] were “Dose-dependent effect” and “tde”, respectively. Also, in the data set with PC-3 [10], the Activity was determined as 84%.

As a reminder, the AUC(0-inf) is total exposure, with the tail of the curve extrapolated. A word on the clearance: it is the rate of elimination divided by the concentration. Usually Cmax stands for the peak of the concentration-time curve. One may read the bioavailability as dose-corrected exposure relative to a reference, in per cent. As to `CO[C@H]1CC[C@H](N2CC(=O)Nc3ncc(-c4ccc(C(C)(C)O)nc4)nc32)CC1`, the IC50 came out at 350 nM in the data set “cells” and 16400 nM in data set [1]. For the same compound, the inhibition in vivo at 100 mg/kg in the data set filed under Mus musculus [2] was found to be 85%; in the data set filed under Mus musculus [5], 69%; in the data set listed under Mus musculus [6], 90%; in the data set filed under Mus musculus [7], 75%; in the data set listed under Mus musculus [8], 62%; in the data set filed under Mus musculus [9] it was 87%. Besides, the inhibition in vivo at 100 mg/kg in the data set filed under Mus musculus [11] is 85%; in the data set listed under Mus musculus [13] it was 61%. In [14], this compound registered an AUC(0-inf) of 90 µM·h. In data set [3], the remaining at 1 h is 94%. Further, the TGI result is “Dose-dependent effect” with PC-3 [4] and “tde” with PC-3 [12]. In data set [15], this compound gave a clearance of 1.7 mL/min/kg. In addition, in data set [16], the highest concentration (Cmax) was 6300 nM. In addition, the bioavailability in [17] amounted to 70%. In addition, the Activity with PC-3 [10] is recorded as 90%.

On to `O=C1CNc2ncc(-c3ccc(-c4ncn[nH]4)cc3)nc2N1CCC1CCOCC1`, for which the IC50 in data set [1] is 100 nM. In addition, the remaining at 1 h in data set [3] was found to be 48%.

Consider `CC(C)(O)c1ccc(-c2cnc3c(n2)N([C@H]2CC[C@H](O)CC2)C(=O)CN3)cn1`, for which, in data set [1], the IC50 was 1900 nM. In [14], this compound gave an area under the curve AUC(0-inf) of 9.23 µM·h. Further, the concentration in data set [16] peaked (Cmax) at 2200 nM.

`CO[C@H]1CC[C@@H](CN2C(=O)CNc3ncc(-c4ccc(C(C)(C)O)nc4)nc32)CC1`: the IC50 in data set [1] amounted to 2500 nM.

In general, Tmax refers to the time from dosing to the highest level. In the data set “cells”, `CC(C)(O)c1ccc(-c2cnc3c(n2)N(CCC2CCOCC2)C(=O)CN3)cn1` gave an IC50 of 90 nM. Further, the inhibition in vivo at 100 mg/kg is 88% in the data set filed under Mus musculus [2]; 78% in the data set filed under Mus musculus [5]; 80% in the data set listed under Mus musculus [6]; 82% in the data set filed under Mus musculus [7]; 63% in the data set filed under Mus musculus [8]; 71% in the data set listed under Mus musculus [9]. In addition, the inhibition in vivo at 100 mg/kg in the data set listed under Mus musculus [11] was 59%; in the data set filed under Mus musculus [13] it was 69%. The compound also came in with an area under the curve AUC(0-inf) in [14] of 14 µM·h. The remaining at 1 h in [3] is 73%. In addition, the results for the TGI entry in the data set with PC-3 [4] and with PC-3 [12] were “Dose-dependent effect” and “tde”, respectively. For the same compound, the clearance in data set [15] was determined as 9 mL/min/kg. Also, the time of peak concentration (Tmax) in data set [18] amounted to 36 min. This compound showed a Cmax in [16] of 1700 nM. Besides, the bioavailability in data set [17] came out at 58%. In addition, the Activity in the data set with PC-3 [10] was determined as 59%.

In the case of `CO[C@H]1CC[C@H](CN2CC(=O)Nc3ncc(-c4ccc(C(C)(C)O)nc4)nc32)CC1`, the results for the concentration for half-maximal inhibition (IC50) (in the data set “cells”; in data set [1]) were 160 nM and 20200 nM, respectively. Besides, the inhibition in vivo at 100 mg/kg in the data set listed under Mus musculus [2] was found to be 64%; in the data set listed under Mus musculus [5], 55%; in the data set listed under Mus musculus [6], 80%; in the data set listed under Mus musculus [8] it was 55%; in the data set filed under Mus musculus [11], 0%; in the data set listed under Mus musculus [13], 0%. Also, the AUC(0-inf) in data set [14] worked out at 7.25 µM·h. In data set [3], the remaining at 1 h is 77%. In [16], the Cmax amounted to 700 nM.

As to `COCCN1C(=O)CNc2ncc(-c3ccc(C(C)(C)O)nc3)nc21`, the results for the IC50 (in the data set “cells”; in data set [1]) were 610 nM and 6200 nM, respectively. The inhibition in vivo at 100 mg/kg in the data set filed under Mus musculus [2] worked out at 91%; in the data set filed under Mus musculus [5], 84%; in the data set listed under Mus musculus [6], 82%; in the data set filed under Mus musculus [8] it was 87%; in the data set listed under Mus musculus [11] it was 91%; in the data set filed under Mus musculus [13], 77%. Moreover, the AUC(0-inf) in data set [14] turned out to be 29 µM·h. Besides, in data set [3], the remaining at 1 h was determined as 89%. In data set [16], this compound displayed a Cmax of 5600 nM.

Consider `Cc1cc(-c2nc[nH]n2)ccc1-c1cnc2c(n1)N(CCC1CCOCC1)CC(=O)N2`, for which the IC50 in [1] stood at 200 nM.

`Cc1cc(-c2nc[nH]n2)ccc1-c1cnc2c(n1)N(CCC1CCOCC1)C(=O)CN2`: the IC50 in data set [1] is 120 nM.

`CC(C)(O)c1ccc(-c2cnc3[nH]c(=O)n(CCC4CCOCC4)c3n2)cn1`: the IC50 in data set [1] was over 30000 nM; in [19], 638 nM; in [20], 64 nM; with PC-3 [21], 2360 nM. The same compound came in with an area under the curve AUC(0-inf) in data set [14] of 4.8 µM·h. In data set [3], the remaining at 1 h worked out at 91%. The clearance in [15] came out at 15 mL/min/kg. The time to peak (Tmax) in data set [18] amounted to 30 min. Also, the concentration in [16] peaked (Cmax) at 1800 nM. The compound further gave a bioavailability in data set [17] of 43%.
